Tests used:
Conditions in all cases: 72 h
HepG2 [1] = assay: cell viability relative to DMSO; higher = less toxic
Vero E6 [2] = assay: as above
Calu-3 [3] = assay: as above
Caco-2 [4] = assay: as above
HepG2 [5] = assay: relative viability EC50 (midpoint between 100% and the lowest measured viability); higher = less toxic
Vero E6 [6] = assay: as above
Calu-3 [7] = assay: as above
Caco-2 [8] = assay: as above
HepG2 [9] = assay: drug sensitivity score (DSS) for viability; higher = more toxic; extreme values may be limits of the assay
Vero E6 [10] = assay: as above
Calu-3 [11] = assay: as above
Caco-2 [12] = assay: as above
U2OS [13] = assay: cell viability relative to DMSO; higher = less toxic
U2OS [14] = assay: relative viability EC50 (midpoint between 100% and the lowest measured viability); higher = less toxic
U2OS [15] = assay: drug sensitivity score (DSS) for viability; higher = more toxic; extreme values may be limits of the assay

| SMILES | cell viability (HepG2 [1]; 1 nM) [%] | cell viability (HepG2 [1]; 10 nM) [%] | cell viability (HepG2 [1]; 100 nM) [%] | cell viability (HepG2 [1]; 1000 nM) [%] | cell viability (HepG2 [1]; 10000 nM) [%] | cell viability (Vero E6 [2]; 1 nM) [%] | cell viability (Vero E6 [2]; 10 nM) [%] | cell viability (Vero E6 [2]; 100 nM) [%] | cell viability (Vero E6 [2]; 1000 nM) [%] | cell viability (Vero E6 [2]; 10000 nM) [%] | cell viability (Calu-3 [3]; 1 nM) [%] | cell viability (Calu-3 [3]; 10 nM) [%] | cell viability (Calu-3 [3]; 100 nM) [%] | cell viability (Calu-3 [3]; 1000 nM) [%] | cell viability (Calu-3 [3]; 10000 nM) [%] | cell viability (Caco-2 [4]; 1 nM) [%] | cell viability (Caco-2 [4]; 10 nM) [%] | cell viability (Caco-2 [4]; 100 nM) [%] | cell viability (Caco-2 [4]; 1000 nM) [%] | cell viability (Caco-2 [4]; 10000 nM) [%] | relative viability EC50 (HepG2 [5]) [µM] | relative viability EC50 (Vero E6 [6]) [µM] | relative viability EC50 (Calu-3 [7]) [µM] | relative viability EC50 (Caco-2 [8]) [µM] | drug sensitivity score (HepG2 [9]) | drug sensitivity score (Vero E6 [10]) | drug sensitivity score (Calu-3 [11]) | drug sensitivity score (Caco-2 [12]) | cell viability (U2OS [13]; 1 nM) [%] | cell viability (U2OS [13]; 10 nM) [%] | cell viability (U2OS [13]; 100 nM) [%] | cell viability (U2OS [13]; 1000 nM) [%] | cell viability (U2OS [13]; 10000 nM) [%] | relative viability EC50 (U2OS [14]) [µM] | drug sensitivity score (U2OS [15]) |
| --- | --- | --- | --- | --- | --- | --- | --- | --- | --- | --- | --- | --- | --- | --- | --- | --- | --- | --- | --- | --- | --- | --- | --- | --- | --- | --- | --- | --- | --- | --- | --- | --- | --- | --- | --- |
| CCC[C@H](N[C@@H](C)C(=O)N1[C@H](C(=O)O)C[C@@H]2CCCC[C@@H]21)C(=O)OCC [perindopril] | 99.1 | 105 | 95.8 | 97.2 | 92.4 | 99.4 | 105 | 98.1 | 97.3 | 98.8 | 97 | 86.8 | 93.1 | 90.1 | 102 | 107 | 99.9 | 94.4 | 101 | 99.5 | > 10 | > 10 | > 10 | > 10 | 0 | 0 | 0 | 0 |  |  |  |  |  |  |  |
| CCC[C@@H]1C[C@@H](C(=O)N[C@@H]([C@H]2O[C@H](SC)[C@H](O)[C@@H](O)[C@H]2O)[C@@H](C)O)N(C)C1 [lincomycin] |  |  |  |  |  | 97.6 | 103 | 94.9 | 89.6 | 101 | 99.5 | 92.6 | 99.1 | 98.7 | 103 | 111 | 94.2 | 107 | 97.2 | 111 |  | > 10 | > 10 | > 10 |  | 0 | 0 | 0 |  |  |  |  |  |  |  |
| N#Cc1nn(-c2c(Cl)cc(C(F)(F)F)cc2Cl)c(N)c1[S+]([O-])C(F)(F)F (stereo unspecified) [fipronil] | 98.2 | 109 | 97.8 | 91.1 | 103 | 106 | 102 | 99.2 | 101 | 102 | 99.3 | 92 | 102 | 103 | 102 | 103 | 105 | 102 | 96.7 | 94.1 | > 10 | > 10 | > 10 | > 10 | 0 | 0 | 0 | 0 |  |  |  |  |  |  |  |
| NCCc1ccccn1 [2-pyridylethylamine] | 113 | 104 | 113 | 113 | 93.6 | 95.2 | 105 | 105 | 102 | 96.6 | 98.8 | 88.4 | 93.4 | 105 | 101 | 110 | 96.4 | 107 | 101 | 108 | > 10 | > 10 | > 10 | > 10 | 0 | 0 | 0 | 0 |  |  |  |  |  |  |  |
| C1Cc2[nH]nc(-c3nn[nH]n3)c2C1 [MK-0354] | 102 | 98 | 95.6 | 105 | 95.4 |  |  |  |  |  | 99.8 | 92.7 | 91.6 | 112 | 101 | 97 | 91.1 | 95.2 | 88.9 | 102 | > 10 |  | > 10 | > 10 | 0 |  | 0 | 0 | 101 | 96.2 | 103 | 96.7 | 103 | > 10 | 0 |
| O=C1NC(=O)/C(=C/c2ccc3c(c2)OC(F)(F)O3)S1 | 95.8 | 95.6 | 101 | 98.9 | 75.2 | 103 | 94.6 | 87.8 | 63 | 45.1 | 97.4 | 89.3 | 46.8 | 30.5 | 24.7 | 94.5 | 97.9 | 84.6 | 81 | 35.1 | > 10 | 0.401 | 0.0473 | 1.62 | 1.1 | 8.2 | 20.7 | 5.6 | 94.3 | 96.2 | 89.6 | 91.2 | 51.3 |  | 4 |
| CC(C)(C)c1cc(C(C)(C)C)c(NC(=O)c2c[nH]c3ccccc3c2=O)cc1O [ivacaftor] | 105 | 105 | 100 | 100 | 98.3 |  |  |  |  |  | 97.2 | 103 | 93.3 | 91.1 | 84.1 | 104 | 98.8 | 99.6 | 101 | 81.6 | > 10 |  | > 10 | > 10 | 0 |  | 0.7 | 0.4 | 100 | 103 | 95.3 | 103 | 86.8 | > 10 | 0.1 |
| FC(F)c1nc2ccccc2n1-c1nc(N2CCOCC2)nc(N2CCOCC2)n1 [ZSTK-474] | 105 | 106 | 98.5 | 75.6 | 34.3 | 95.2 | 101 | 90.3 | 69.8 | 42.4 | 101 | 102 | 95.3 | 84 | 40.6 | 102 | 99.2 | 97.9 | 68.2 | 27.1 | 1.25 | 0.768 | 1.51 | 1.14 | 6.9 | 6.8 | 5.6 | 7.9 | 96 | 97.4 | 98.1 | 95.6 | 60 |  | 2.7 |
| O=C(O)c1ccccc1O [salicylic-acid] | 95.4 | 96.1 | 99.3 | 97 | 108 |  |  |  |  |  | 105 | 91.8 | 90.6 | 88.9 | 105 | 103 | 97 | 105 | 94.7 | 96.6 | > 10 |  | > 10 | > 10 | 0 |  | 0 | 0 | 99.8 | 99.6 | 98.5 | 96.5 | 102 | > 10 | 0 |
| O=[N+]([O-])c1cn2c(n1)OC[C@@H](OCc1ccc(OC(F)(F)F)cc1)C2 [pretomanid] | 106 | 103 | 102 | 96.3 | 100 | 111 | 97.6 | 103 | 95.8 | 102 | 101 | 96.5 | 96.4 | 112 | 103 | 98.3 | 100 | 102 | 99.3 | 92.6 | > 10 | > 10 | > 10 | > 10 | 0 | 0 | 0 | 0 |  |  |  |  |  |  |  |
| NC[C@H]1CC[C@H](C(=O)O)CC1 [tranexamic-acid] |  |  |  |  |  | 98.1 | 101 | 105 | 94.4 | 103 | 101 | 95.5 | 87.8 | 94.7 | 90.9 | 106 | 105 | 104 | 98.3 | 96.4 |  | > 10 | > 10 | > 10 |  | 0 | 0 | 0 |  |  |  |  |  |  |  |
| COC(=O)[C@H](Cc1ccccc1)NC(=O)[C@@H](N)CC(=O)O [aspartame] | 98.3 | 91.6 | 98.2 | 94.3 | 102 |  |  |  |  |  | 91.2 | 100 | 92.8 | 89.4 | 96.5 | 97.8 | 99.1 | 101 | 99.6 | 94 | > 10 |  | > 10 | > 10 | 0 |  | 0 | 0 | 99.8 | 99.7 | 98.6 | 103 | 101 | > 10 | 0 |
| CC(=O)N(CC(O)CN(C(C)=O)c1c(I)c(C(=O)NCC(O)CO)c(I)c(C(=O)NCC(O)CO)c1I)c1c(I)c(C(=O)NCC(O)CO)c(I)c(C(=O)NCC(O)CO)c1I (stereo unspecified) [iodixanol] | 107 | 99.2 | 108 | 102 | 105 |  |  |  |  |  | 88.1 | 107 | 95.9 | 97.2 | 96.3 | 96.9 | 102 | 87 | 102 | 102 | > 10 |  | > 10 | > 10 | 0 |  | 0 | 0 | 95.4 | 101 | 95.6 | 108 | 97.5 | > 10 | 0 |
| Cn1cc(CCn2cnc(-c3cnn(C)c3)c2-c2ccc(C#N)cc2)cn1 [BAZ2-ICR] |  |  |  |  |  |  |  |  |  |  |  |  |  |  |  |  |  |  |  |  | > 10 | > 10 | > 10 | > 10 | 0 | 0 | 0 | 0 |  |  |  |  |  |  | 0 |
